# Test results as given in patent US12473304B2, “Heterocyclic PAD4 inhibitors” (BRISTOL-MYERS SQUIBB COMPANY, priority 2020, dated 2025).
# Target: human PAD4 (hPAD4) (Homo sapiens (Human), UniProt Q9UM07)
# Experiment: RFMS Human PAD4 Functional Assay 1
# Format: biochemical
# Conditions: RFMS assay 1; 5 nM hPAD4, 250 μM BAEE substrate, 50 μM calcium, 37° C.
# Method in brief: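 Citrullination product read by RapidFire triple-quad MRM against a modified-citrulline internal standard, after TCA stop and 30 min phenyl glyoxal step at 37 °C. Reaction: 250 μM BAEE, 5 nM human PAD4, 90 min at 37 °C, pH 7.5 HEPES buffer with 50 μM calcium and 5 μM TPEN, following 30 min compound–enzyme preincubation (max 50 μM).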
# Chain of human PAD4 (hPAD4) (Q9UM07 whole entry): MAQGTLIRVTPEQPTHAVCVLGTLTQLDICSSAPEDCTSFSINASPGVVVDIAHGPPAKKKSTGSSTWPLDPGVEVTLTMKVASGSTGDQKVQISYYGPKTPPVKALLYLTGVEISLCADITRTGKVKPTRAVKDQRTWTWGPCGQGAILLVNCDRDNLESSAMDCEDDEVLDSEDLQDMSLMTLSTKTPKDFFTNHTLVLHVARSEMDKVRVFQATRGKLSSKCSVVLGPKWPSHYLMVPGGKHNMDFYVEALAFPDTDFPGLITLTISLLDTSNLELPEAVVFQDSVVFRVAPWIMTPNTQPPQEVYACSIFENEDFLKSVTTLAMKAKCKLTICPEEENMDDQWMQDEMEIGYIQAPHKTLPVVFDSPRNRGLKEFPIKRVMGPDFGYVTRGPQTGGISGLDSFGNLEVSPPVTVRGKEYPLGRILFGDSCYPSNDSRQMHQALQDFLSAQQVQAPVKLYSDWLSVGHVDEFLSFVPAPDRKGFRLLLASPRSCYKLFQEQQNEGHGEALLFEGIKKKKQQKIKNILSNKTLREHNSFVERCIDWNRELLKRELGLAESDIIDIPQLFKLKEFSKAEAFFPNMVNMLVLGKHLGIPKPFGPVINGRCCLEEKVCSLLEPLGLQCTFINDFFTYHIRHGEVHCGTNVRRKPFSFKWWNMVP
row,Structure (SMILES),IC50 [nM]
1,"Cc1c(-c2cc3ccc(N4CCC(N5CCCC5=O)CC4)cc3n2CC2CC2)nn2cc(C(=O)N3C[C@H](N)C[C@@H](F)C3)ccc12 [Example 356, 1-[1-(2-{6-[(3R,5R)-3-Amino-5-fluoropiperidine-1-carbonyl]-3-methylpyrazolo[1,5-a]pyridin-2-yl}-1-(cyclopropylmethyl)-1H-indol-6-yl)piperidin-4-yl]pyrrolidin-2-one]",2780
2,"Cc1c(-c2cc3ccc(N4CCC(N5CCOC5=O)CC4)cc3n2CC2CC2)nn2cc(C(=O)N3C[C@H](N)C[C@@H](F)C3)ccc12 [Example 357, 3-[1-(2-{6-[(3R,5R)-3-Amino-5-fluoropiperidine-1-carbonyl]-3-methylpyrazolo[1,5-a]pyridin-2-yl}-1-(cyclopropylmethyl)-1H-indol-6-yl)piperidin-4-yl]-l,3-oxazolidin-2-one]",50
3,"COC(=O)N(C)C1CCN(c2ccc3cc(-c4nn5cc(C(=O)N6CCC[C@@H](N)C6)ccc5c4C)n(CC4CC4)c3c2)CC1 [Example 358, Methyl N-[1-(2-{6-[(3R)-3-aminopiperidine-1-carbonyl]-3-methylpyrazolo[1,5-a]pyridin-2-yl}-1-(cyclopropylmethyl)-1H-indol-6-yl)piperidin-4-yl]-N-methylcarbamate]",420
4,"CC(=O)N(C)C1CCN(c2ccc3cc(-c4nn5cc(C(=O)N6CCC[C@@H](N)C6)ccc5c4C)n(CC4CC4)c3c2)CC1 [Example 359, N-[1-(2-{6-[(3R)-3-Aminopiperidine-1-carbonyl]-3-methylpyrazolo[1,5-a]pyridin-2-yl}-1-(cyclopropylmethyl)-1H-indol-6-yl)piperidin-4-yl]-N-methyl acetamide]",240
5,"Cc1c(-c2cc3ccc(N4CCC(N(C)S(C)(=O)=O)CC4)cc3n2CC2CC2)nn2cc(C(=O)N3CCC[C@@H](N)C3)ccc12 [Example 360, N-[1-(2-{6-[(3R)-3-Aminopiperidine-1-carbonyl]-3-methylpyrazolo[1,5-a]pyridin-2-yl}-1-(cyclopropylmethyl)-1H-indol-6-yl)piperidin-4-yl]-N-methylmethanesulfonamide]",450
6,"Cc1c(-c2cc3ccc(N4CCC(C(=O)N5CCCC5)CC4)cc3n2CC2CC2)nn2cc(C(=O)N3CCC[C@@H](N)C3)ccc12 [Example 361, (3R)-1-{2-[1-(Cyclopropylmethyl)-6-[4-(pyrrolidine-1-carbonyl)piperidin-1-yl]-1H-indol-2-yl]-3-methylpyrazolo[1,5-a]pyridine-6-carbonyl}piperidin-3-amine]",300
7,"Cc1c(-c2cc3ccc(N4CCC(N(C)S(C)(=O)=O)CC4)cc3n2CC2CC2)nn2cc(C(=O)N3CCC[C@@H](N)C3)ccc12 [Example 362, N-[1-(2-{6-[(3R)-3-Aminopiperidine-1-carbonyl]-3-methylpyrazolo[1,5-a]pyridin-2-yl}-1-(cyclopropylmethyl)-1H-indol-6-yl)piperidin-4-yl]-N-methylmethanesulfonamide]",430
8,"Cc1c(-c2cc3ccc(N4CCC(N5CCCC5=O)CC4)cc3n2CC2CC2)nn2cc(C(=O)N3CCC[C@@H](N)C3)ccc12 [Example 363, 1-[1-(2-{6-[(3R)-3-Aminopiperidine-1-carbonyl]-3-methylpyrazolo[1,5-a]pyridin-2-yl}-1-(cyclopropylmethyl)-1H-indol-6-yl)piperidin-4-yl]pyrrolidin-2-one]",2280
9,"Cc1c(-c2cc3ccc(N4CCC(N5CCOC5=O)CC4)cc3n2CC2CC2)nn2cc(C(=O)N3CCC[C@@H](N)C3)ccc12 [Example 364, 3-[1-(2-{6-[(3R)-3-Aminopiperidine-1-carbonyl]-3-methylpyrazolo[1,5-a]pyridin-2-yl}-1-(cyclopropylmethyl)-1H-indol-6-yl)piperidin-4-yl]-1,3-oxazolidin-2-one]",1090
10,"Cc1c(-c2cc3ccc(N4CCC(n5cccn5)CC4)cc3n2CC2CC2)nn2cc(C(=O)N3CCC[C@@H](N)C3)ccc12 [Example 365, (3R)-1-{2-[1-(Cyclopropylmethyl)-6-[4-(1H-pyrazol-1-yl)piperidin-1-yl]-1H-indol-2-yl]-3-methylpyrazolo[1,5-a]pyridine-6-carbonyl}piperidin-3-amine]",720
11,"Cc1c(-c2cc3ccc(N4CC(N(C)S(C)(=O)=O)C4)cc3n2CC2CC2)nn2cc(C(=O)N3CCC[C@@H](N)C3)ccc12 [Example 366, N-[1-(2-{6-[(3R)-3-Aminopiperidine-1-carbonyl]-3-methylpyrazolo[1,5-a]pyridin-2-yl}-1-(cyclopropylmethyl)-1H-indol-6-yl)azetidin-3-yl]-N-methylmethanesulfonamide]",870
12,"Cc1c(-c2cc3ccc(-c4cccc(CNS(C)(=O)=O)c4)cc3n2CC2CC2)nn2cc(C(=O)N3C[C@H](N)C[C@@H](F)C3)ccc12 [Example 367, N-{[3-(2-{6-[(3R,5R)-3-Amino-5-fluoropiperidine-1-carbonyl]-3-methylpyrazolo[1,5-a]pyridin-2-yl}-1-(cyclopropylmethyl)-1H-indol-6-yl)phenyl]methyl}methanesulfonamide]",1000
13,"Cc1c(-c2cc3ccc(-c4cccc(-c5nn[nH]n5)c4)cc3n2CC2CC2)nn2cc(C(=O)N3C[C@H](N)C[C@@H](F)C3)ccc12 [Example 368, (3R,5R)-1-{2-[1-(Cyclopropylmethyl)-6-[3-(2H-1,2,3,4-tetrazol-5-yl)phenyl]-1H-indol-2-yl]-3-methylpyrazolo[1,5-a]pyridine-6-carbonyl}-5-fluoropiperidin-3-amine]",2800
14,"Cc1c(-c2cc3ccc(-c4ccc(NS(C)(=O)=O)cc4)cc3n2CC2CC2)nn2cc(C(=O)N3C[C@H](N)C[C@@H](F)C3)ccc12 [Example 369, N-[4-(2-{6-[(3R,5R)-3-Amino-5-fluoropiperidine-1-carbonyl]-3-methylpyrazolo[1,5-a]pyridin-2-yl}-1-(cyclopropylmethyl)-1H-indol-6-yl)phenyl]methanesulfonamide]",20
15,"Cc1c(-c2cc3ccc(-c4ccc(CNS(C)(=O)=O)cc4)cc3n2CC2CC2)nn2cc(C(=O)N3C[C@H](N)C[C@@H](F)C3)ccc12 [Example 370, N-{[4-(2-{6-[(3R,5R)-3-Amino-5-fluoropiperidine-1-carbonyl]-3-methylpyrazolo[1,5-a]pyridin-2-yl}-1-(cyclopropylmethyl)-1H-indol-6-yl)phenyl]methyl}methanesulfonamide]",130
16,"Cc1c(-c2cc3ccc(-c4cccc(CO)c4)cc3n2CC2CC2)nn2cc(C(=O)N3C[C@H](N)C[C@@H](F)C3)ccc12 [Example 371, [3-(2-{6-[(3R,5R)-3-Amino-5-fluoropiperidine-1-carbonyl]-3-methylpyrazolo[1,5-a]pyridin-2-yl}-1-(cyclopropylmethyl)-1H-indol-6-yl)phenyl]methanol]",1070

# Continued, values first:
row,IC50 [nM],Structure (SMILES)
1,190,"Cc1c(-c2cc3ccc(-c4ccccc4C(N)=O)cc3n2CC2CC2)nn2cc(C(=O)N3C[C@H](N)C[C@@H](F)C3)ccc12 [Example 372, 2-(2-{6-[(3R,5R)-3-Amino-5-fluoropiperidine-1-carbonyl]-3-methylpyrazolo[1,5-a]pyridin-2-yl}-1-(cyclopropylmethyl)-1H-indol-6-yl)benzamide]"
2,200,"Cc1c(-c2cc3ccc(-c4ccc(C(N)=O)cc4)cc3n2CC2CC2)nn2cc(C(=O)N3C[C@H](N)C[C@@H](F)C3)ccc12 [Example 373, 4-(2-{6-[(3R,5R)-3-Amino-5-fluoropiperidine-1-carbonyl]-3-methylpyrazolo[1,5-a]pyridin-2-yl}-1-(cyclopropylmethyl)-1H-indol-6-yl)benzamide]"
3,1360,"Cc1c(-c2cc3ccc(-c4cc(Cl)c(CO)cc4F)cc3n2CC2CC2)nn2cc(C(=O)N3C[C@H](N)C[C@@H](F)C3)ccc12 [Example 375, [4-(2-{6-[(3R,5R)-3-Amino-5-fluoropiperidine-1-carbonyl]-3-methylpyrazolo[1,5-a]pyridin-2-yl}-1-(cyclopropylmethyl)-1H-indol-6-yl)-2-chloro-5-fluorophenyl]methanol]"
4,120,"Cc1c(-c2ccc3cc(-c4nn5cc(C(=O)N6C[C@H](N)C[C@@H](F)C6)ccc5c4C)n(CC4CC4)c3c2)cc(F)c2[nH]c(=O)ccc12 [Example 376, 6-(2-{6-[(3R,5R)-3-Amino-5-fluoropiperidine-1-carbonyl]-3-methylpyrazolo[1,5-a]pyridin-2-yl}-1-(cyclopropylmethyl)-1H-indol-6-yl)-8-fluoro-5-methyl-1,2-dihydroquinolin-2-one]"
5,90,"Cc1c(-c2cc3ccc(-c4ccc(C(N)=O)cc4Cl)cc3n2CC2CC2)nn2cc(C(=O)N3C[C@H](N)C[C@@H](F)C3)ccc12 [Example 377, 4-(2-{6-[(3R,5R)-3-Amino-5-fluoropiperidine-1-carbonyl]-3-methylpyrazolo[1,5-a]pyridin-2-yl}-1-(cyclopropylmethyl)-1H-indol-6-yl)-3-chlorobenzamide]"
6,450,"Cc1cc(-c2ccc3cc(-c4nn5cc(C(=O)N6C[C@H](N)C[C@@H](F)C6)ccc5c4C)n(CC4CC4)c3c2)ccc1C(N)=O [Example 378, 4-(2-{6-[(3R,5R)-3-Amino-5-fluoropiperidine-1-carbonyl]-3-methylpyrazolo[1,5-a]pyridin-2-yl}-1-(cyclopropylmethyl)-1H-indol-6-yl)-2-methylbenzamide]"
7,160,"Cc1c(-c2cc3ccc(-c4ccn5c(C)nnc5c4)cc3n2CC2CC2)nn2cc(C(=O)N3C[C@H](N)C[C@@H](F)C3)ccc12 [Example 379, (3R,5R)-1-{2-[1-(Cyclopropylmethyl)-6-{3-methyl-[1,2,4]triazolo[4,3-a]pyridin-7-yl}-1H-indol-2-yl]-3-methylpyrazolo[1,5-a]pyridine-6-carbonyl}-5-fluoropiperidin-3-amine]"
8,140,"Cc1c(-c2cc3ccc(C(C)(C)O)nc3n2CC2CC2)nn2cc(C(=O)N3CCC[C@@H](N)C3)ccc12 [Example 380, 2-(2-{6-[(3R)-3-Aminopiperidine-1-carbonyl]-3-methylpyrazolo[1,5-a]pyridin-2-yl}-1-(cyclopropylmethyl)-1H-pyrrolo[2,3-b]pyridin-6-yl)propan-2-ol]"
